Assay [1] has as its target Human recombinant dopamine D2 receptor (Homo sapiens (Human), UniProt P14416). The following applies: forskolin-stimulated D2 expressing CHO/DHFR(-) cells, control drug. Here is the method:
Partial agonistic activity on dopamine D2 receptor was evaluated by quantitatively determining cyclic AMP production inhibitory effect of a test compound in dopamine D2 receptor expression cells in which adenosine 3′,5′-cyclic monophosphate (cyclic AMP) production was induced by forskolin stimulation.
Human recombinant dopamine D2 receptor expressing Chinese hamster ovary/DHFR(−) cells were cultured in a culture medium (Iscove's Modified Dulbecco's Medium (IMDM culture medium), 10% fetal bovine serum, 50 I.U./ml penicillin, 50 μg/ml streptomycin, 200 μg/ml geneticin, 0.1 mM sodium hypoxanthine, 16 μM thymidine) at 37° C. and 5% carbon dioxide condition. Cells were seeded at 10^4 cells/well on a 96-well microtiter plate coated with poly-L-lysine and grown under the same condition for 2 days. Each well was washed with 100 μl of a culture medium (IMDM culture medium, 0.1 mM sodium hypoxanthine, 16 μM thymidine).

In another assay the target is Serotonin (5-HT) uptake (Rattus norvegicus (Rat), UniProt P31652). Description: Serotonin (5-HT) uptake inhibitory activity by rat brain synaptosome. In kind it is biochemical. The following applies: test compound 300 nM, rat frontal cortex synaptosome; read-out: Serotonin uptake inhibitory ratio (%) (300 nM). Here is the method:
Measurement of Serotonin (5-HT) Uptake Inhibitory Activity of a Test Compound by Rat Brain Synaptosome
Wistar male rats were decapitated, the brain was retrieved and frontal cortex was dissected out, and it was homogenized in 0.32 M sucrose solution of a weight 20 times of the weight of the tissue using a Potter type homogenizer. The homogenate was centrifuged at 4° C., 1,000×g for 10 minutes, the obtained supernatant was further centrifuged at 4° C., 20,000×g for 20 minutes, and the pellet was suspended in an incubation buffer (20 mM Hepes buffer (pH 7.4) containing 10 mM glucose, 145 mM sodium chloride, 4.5 mM potassium Chloride, 1.2 mM magnesium chloride, 1.5 mM calcium chloride), which was used as crude synaptosome fraction.
5-HT uptake reaction was performed in a volume of 200 μl using a 96-well round bottom plate and pargyline (final concentration 10 μM) and sodium ascorbate (final concentration 0.2 mg/ml) were contained in the incubation buffer upon reaction and used.
Incubation buffer (total counting), non-labeled 5-HT (final concentration 10 μM, non-specific counting) and the diluted test compound (final concentration 300 nM) were added to each well. One-tenth quantity of the final volume of the synaptosome fraction was added and after preincubated at 37° C. for 10 minutes, tritium labeled 5-HT solution (final concentration 8 nM) was added and uptake reaction was started at 37° C. The uptake time was 10 minutes and the reaction was terminated by vacuum filtration through a 96-well fiber glass filter paper plate, and after the filter paper was washed with cold normal saline, it was dried enough and Microscint0 (Perkin-Elmer) was added to the filter and remaining radioactivity on the filter was measured.

Assay [2] concerns the target Serotonin 5-HT2A receptor (Rattus norvegicus (Rat), UniProt P14842). Kind of assay: Serotonin 5-HT2A receptor binding assay ([3H]-Ketanserin, rat frontal cortex membrane). The following applies: Ki from IC50 by Cheng-Prussoff formula. The procedure:
2) Serotonin 5-HT2A Receptor Binding Assay
The assay was performed according to the method by Leysen J E et al. (Leysen J E, Niemegeers C J E, Van Nueten J M and Laduron P M. [3H] Ketanserin (R 41 468), a selective 3H-ligand for serotonin 2 receptor binding sites. Mol. Pharmacol., 1982, 21: 301-314).
Wistar male rats were decapitated, the brain was retrieved immediately and frontal cortex was taken out. It was homogenized in 0.25 M sucrose of a volume 10 times of the weight of the tissue using a Teflon glass homogenizer, and centrifuged at 4° C., 1,000×g for 10 minutes. The obtained supernatant was transferred to another centrifuge tube and suspended in 0.25 M sucrose of a volume 5 times of the weight of the tissue and the precipitate was centrifuged in the above-described condition. The obtained supernatant was combined with the supernatant obtained above and adjusted to a volume 40 times of the weight of the tissue with 50 mM Tris-hydrochloric acid buffer (pH 7.4), and centrifuged at 4° C., 35,000×g for 10 minutes. The obtained precipitate was suspended again in the above-described buffer of a volume 40 times of the weight of the tissue and centrifuged in the above-described condition. The obtained precipitate was suspended in the above-described buffer of a volume 20 times of the weight of the tissue and preserved by freezing at −85° C. till it was used for binding assay as a membrane specimen.
The binding assay was performed using 40 μl of the membrane specimen, 20 μl of [^3H]-Ketanserin (final concentration 1 to 3 nM), 20 μl of a test drug and 50 mM Tris-hydrochloric acid buffer (pH 7.4) so that the total amount was 200 μl (final dimethylsulfoxide concentration 1%). The reaction was performed at 37° C. for 20 minutes and terminated by conducting suction filtration with a cell harvester on a glass fiber filter plate.
The filter plate made of glass fiber was washed with 50 mM Tris-hydrochloric acid buffer (pH 7.4), and after dried, a microplate liquid scintillation cocktail was added and the radioactivity was measured with a microplate scintillation counter. Radioactivity in the presence of 10 μM spiperone was assumed as nonspecific binding.
(§1) IC50 value was calculated from concentration-dependent reaction using a non-linear analysis program. Ki value was calculated from IC50 value using Cheng-Prussoff formula.

A further assay deals with Dopamine D2 receptor (Rattus norvegicus (Rat), UniProt P61169). Description: Dopamine D2 receptor binding assay ([3H]-raclopride, rat corpus striatum membrane). The following applies: Ki from IC50 by Cheng-Prussoff formula. Here is the method:
Pharmacological Test 1 1) Dopamine D2 Receptor Binding Assay
Wistar male rats were decapitated, the brain was retrieved immediately and corpus striatum was taken out. It was homogenized in 50 mM tris(hydroxymethyl)aminomethane (Tris)-hydrochloric acid buffer (pH 7.4) of a volume 50 times of the weight of the tissue using a homogenizer with a high-speed rotating blade, and centrifuged at 4° C., 48,000×g for 10 minutes. The obtained precipitate was suspended again in the above-described buffer of a volume 50 times of the weight of the tissue and after incubated at 37° C. for 10 minutes, centrifuged in the above-described condition. The obtained precipitate was suspended in 50 mM (Tris)-hydrochloric acid buffer (containing 120 mM NaCl, 5 mM KCl, 2 mM CaCl2, 1 mM MgCl2, pH 7.4) of a volume 25 times of the weight of the tissue and preserved by freezing at −85° C. till it was used for binding assay as a membrane specimen.
The binding assay was performed using 40 μl of the membrane specimen, 20 μl of [^3H]-raclopride (final concentration 1 to 2 nM), 20 μl of a test drug and 50 mM Tris-hydrochloric acid buffer (containing 120 mM NaCl, 5 mM KCl, 2 mM CaCl2, 1 mM MgCl2, pH 7.4) so that the total amount was 200 μl (final dimethylsulfoxide concentration 1%). The reaction was performed at room temperature for 1 hour and terminated by conducting suction filtration with a cell harvester on a glass fiber filter plate. The filter plate made of glass fiber was washed with 50 mM Tris-hydrochloric acid buffer (pH 7.4), and after dried, a microplate liquid scintillation cocktail was added and the radioactivity was measured with a microplate scintillation counter. Radioactivity in the presence of 10 μM (+)-butaclamol hydrochloride was assumed as nonspecific binding.
as §1

The structures appear in SMILES notation. pKi: −log10 of the molar value.

What is called pKi is the negative decadic logarithm of the Ki, by convention in mol/L.

Serotonin (5-HT) uptake, sequence (P31652 whole entry): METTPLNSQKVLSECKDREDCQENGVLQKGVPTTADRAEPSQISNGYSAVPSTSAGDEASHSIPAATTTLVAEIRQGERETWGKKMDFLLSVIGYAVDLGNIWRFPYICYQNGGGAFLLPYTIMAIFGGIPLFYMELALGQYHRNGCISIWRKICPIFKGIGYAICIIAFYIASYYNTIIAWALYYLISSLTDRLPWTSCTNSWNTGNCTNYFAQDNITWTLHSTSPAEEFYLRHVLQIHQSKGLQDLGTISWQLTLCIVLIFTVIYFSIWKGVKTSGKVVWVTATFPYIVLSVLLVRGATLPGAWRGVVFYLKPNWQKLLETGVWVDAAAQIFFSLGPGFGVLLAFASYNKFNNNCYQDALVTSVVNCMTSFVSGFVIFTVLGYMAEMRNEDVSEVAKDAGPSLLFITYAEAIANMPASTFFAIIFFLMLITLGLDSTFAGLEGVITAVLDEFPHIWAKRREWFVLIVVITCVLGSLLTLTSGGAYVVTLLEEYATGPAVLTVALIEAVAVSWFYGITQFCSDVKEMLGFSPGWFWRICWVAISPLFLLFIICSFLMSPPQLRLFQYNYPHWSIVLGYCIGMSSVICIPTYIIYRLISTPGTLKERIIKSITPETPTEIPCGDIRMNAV
Serotonin 5-HT2A receptor, sequence (P14842 whole entry): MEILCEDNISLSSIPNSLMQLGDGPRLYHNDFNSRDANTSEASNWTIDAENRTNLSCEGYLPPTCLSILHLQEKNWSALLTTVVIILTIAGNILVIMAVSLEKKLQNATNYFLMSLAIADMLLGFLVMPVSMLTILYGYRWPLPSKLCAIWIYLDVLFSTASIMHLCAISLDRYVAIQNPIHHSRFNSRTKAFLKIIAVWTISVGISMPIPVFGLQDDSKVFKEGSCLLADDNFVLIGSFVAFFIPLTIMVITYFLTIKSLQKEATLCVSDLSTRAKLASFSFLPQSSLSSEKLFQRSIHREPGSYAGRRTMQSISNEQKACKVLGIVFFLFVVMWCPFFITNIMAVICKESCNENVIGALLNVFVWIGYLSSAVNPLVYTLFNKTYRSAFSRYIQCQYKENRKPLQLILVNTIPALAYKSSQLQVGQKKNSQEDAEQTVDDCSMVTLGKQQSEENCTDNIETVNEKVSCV
Dopamine D2 receptor, sequence (P61169 whole entry): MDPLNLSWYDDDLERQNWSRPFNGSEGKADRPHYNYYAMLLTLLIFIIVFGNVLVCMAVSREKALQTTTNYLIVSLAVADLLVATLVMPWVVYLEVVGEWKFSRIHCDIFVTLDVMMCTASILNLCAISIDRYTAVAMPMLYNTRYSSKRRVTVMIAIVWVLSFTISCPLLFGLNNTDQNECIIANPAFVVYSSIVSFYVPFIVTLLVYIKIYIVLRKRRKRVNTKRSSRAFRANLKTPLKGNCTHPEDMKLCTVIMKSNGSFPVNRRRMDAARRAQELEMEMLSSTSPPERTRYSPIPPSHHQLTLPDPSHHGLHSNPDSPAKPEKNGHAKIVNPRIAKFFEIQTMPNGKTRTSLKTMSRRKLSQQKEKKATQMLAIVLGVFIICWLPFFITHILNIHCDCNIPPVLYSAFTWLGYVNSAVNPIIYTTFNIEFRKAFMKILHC
Human recombinant dopamine D2 receptor, sequence (P14416 whole entry): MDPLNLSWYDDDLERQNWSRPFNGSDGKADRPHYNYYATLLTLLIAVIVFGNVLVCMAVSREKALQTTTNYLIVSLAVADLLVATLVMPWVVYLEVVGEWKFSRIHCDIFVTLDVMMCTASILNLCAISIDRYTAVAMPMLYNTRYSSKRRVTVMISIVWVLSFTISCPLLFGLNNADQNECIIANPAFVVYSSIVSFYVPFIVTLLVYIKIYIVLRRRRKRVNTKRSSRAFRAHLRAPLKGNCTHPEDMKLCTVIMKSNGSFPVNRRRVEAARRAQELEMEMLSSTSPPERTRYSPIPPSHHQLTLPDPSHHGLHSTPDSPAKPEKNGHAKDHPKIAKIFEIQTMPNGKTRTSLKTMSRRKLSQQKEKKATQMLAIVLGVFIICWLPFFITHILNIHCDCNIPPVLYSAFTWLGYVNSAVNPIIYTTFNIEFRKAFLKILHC

As to `NCCc1ccc(O)c(O)c1` [dopamine], the “quantity of cyclic AMP as the maximum activity (well without test compound = 100%)” value in assay [1] is “about 10%”.

With `Cc1cc(=O)[nH]c2cc(OCCCCN3CCN(c4cccc5sccc45)CC3)ccc12` [Example 4, 7-[4-(4-benzo[b]thiophen-4-yl-piperazin-1-yl)butoxy]-4-methyl-1H-quinolin-2-one], the inhibition at 0.3 µM at Serotonin (5-HT) uptake was determined as 91%. For the same molecule, the pKi is 8.31 in assay [2] and 9.30 at Dopamine D2 receptor.

Consider `O=C1CCc2cc(OCCCCN3CCN(c4cccc5sccc45)CC3)ccc2N1` [Example 20, 6-[4-(4-benzo[b]thiophen-4-yl-piperazin-1-yl)butoxy]-3,4-dihydro-1H-quinolin-2-one], for which, at Serotonin (5-HT) uptake, the inhibition at 0.3 µM is 92.8%. The pKi in assay [2] was 8.48; at Dopamine D2 receptor, 8.82.

Consider `O=c1[nH]ccc2cc(OCCCN3CCN(c4cccc5sccc45)CC3)ccc12` [Example 40, 6-[3-(4-benzo[b]thiophen-4-yl-piperazin-1-yl)propoxy]-2H-isoquinolin-1-one], for which the inhibition at 0.3 µM on Serotonin (5-HT) uptake was determined as 91.6%. The pKi was 8.29 in assay [2] and 8.32 on Dopamine D2 receptor.

With `CCN1CCc2cc(OCCCN3CCN(c4cccc5sccc45)CC3)ccc2C1=O` [Example 27, 6-[3-(4-benzo[b]thiophen-4-yl-piperazin-1-yl)propoxy]-2-ethyl-3,4-dihydro-2H-isoquinolin-1-one], the inhibition at 0.3 µM on Serotonin (5-HT) uptake stood at 94%. The pKi in assay [2] is 8.39; at Dopamine D2 receptor it was 8.31.

On to `Cc1cc2ccc(OCCCN3CCN(c4cccc5sccc45)CC3)cc2[nH]c1=O` [Example 5, 7-[3-(4-benzo[b]thiophen-4-yl-piperazin-1-yl)propoxy]-3-methyl-1H-quinolin-2-one], for which the inhibition at 0.3 µM on Serotonin (5-HT) uptake was found to be 89.1%. Besides, the pKi in assay [2] is 8.19; on Dopamine D2 receptor, 9.22.

With `O=C1c2ccccc2CCN1CCCCCN1CCN(c2cccc3sccc23)CC1` [Example 24, 2-[5-(4-benzo[b]thiophen-4-yl-piperazin-1-yl)pentyl]-3,4-dihydro-2H-isoquinolin-1-one], the inhibition at 0.3 µM on Serotonin (5-HT) uptake stood at 97.5%. The pKi was 8.64 in assay [2] and 8.30 at Dopamine D2 receptor.

For the molecule `O=c1c2ccccc2ccn1CCCCN1CCN(c2cccc3sccc23)CC1` [Example 34, 2-[4-(4-benzo[b]thiophen-4-yl-piperazin-1-yl)butyl]-2H-isoquinolin-1-one], the inhibition at 0.3 µM at Serotonin (5-HT) uptake is 94.2%. Moreover, the pKi in assay [2] is 8.82; on Dopamine D2 receptor it was 8.92.

For the molecule `O=c1ccc2ccc(OCCCCN3CCN(c4cccc5sccc45)CC3)cc2[nH]1` [Example 1, 7-[4-(4-benzo[b]thiophen-4-yl-piperazin-1-yl)butoxy]-1H-quinolin-2-one], the inhibition at 0.3 µM on Serotonin (5-HT) uptake was found to be 92.4%. Further, the values for the pKi (in assay [2]; on Dopamine D2 receptor) were 8.64 and 9.70, respectively.

As for `CC1CC(=O)Nc2cc(OCCCCN3CCN(c4cccc5sccc45)CC3)ccc21` (stereo not shown) [Example 16, 7-[4-(4-benzo[b]thiophen-4-yl-piperazin-1-yl)butoxy]-4-methyl-3,4-dihydro-1H-quinolin-2-one], the inhibition at 0.3 µM on Serotonin (5-HT) uptake is 86.7%. Also, the pKi is 8.15 in assay [2] and 9.15 at Dopamine D2 receptor.

As to `CN1CCc2cc(OCCCN3CCN(c4cccc5sccc45)CC3)ccc2C1=O` [Example 26, 6-[3-(4-benzo[b]thiophen-4-yl-piperazin-1-yl)propoxy]-2-methyl-3,4-dihydro-2H-isoquinolin-1-one], the inhibition at 0.3 µM at Serotonin (5-HT) uptake came out at 92%. In addition, the pKi is 8.36 in assay [2] and 8.46 on Dopamine D2 receptor.

For the molecule `O=C1CCc2ccc(OC/C=C/CN3CCN(c4cccc5sccc45)CC3)cc2N1` [Example 15, 7-[4-(4-benzo[b]thiophen-4-yl-piperazin-1-yl)-(E)-2-butenyloxy]-3,4-dihydro-1H-quinolin-2-one], the inhibition at 0.3 µM at Serotonin (5-HT) uptake turned out to be 87.2%. For the same molecule, the pKi is 8.48 in assay [2] and 9.70 at Dopamine D2 receptor.

Consider `O=c1ccc2ccc(OCCCN3CCN(c4cccc5sccc45)CC3)cc2[nH]1` [Example 7, 7-[3-(4-benzo[b]thiophen-4-yl-piperazin-1-yl)propoxy]-1H-quinolin-2-one], for which the inhibition at 0.3 µM at Serotonin (5-HT) uptake was found to be 91%. The results for the pKi (in assay [2]; at Dopamine D2 receptor) were 8.40 and 9.30, respectively.

As to `O=C1CCc2ccc(OCCCN3CCN(c4cccc5sccc45)CC3)cc2N1` [Example 10, 7-[3-(4-benzo[b]thiophen-4-yl-piperazin-1-yl)propoxy]-3,4-dihydro-1H-quinolin-2-one], the inhibition at 0.3 µM at Serotonin (5-HT) uptake was determined as 92.6%. Also, the pKi in assay [2] is 8.52; at Dopamine D2 receptor, 9.40.

The values above are taken from patent US9206167B2, “Piperazine-substituted benzothiophenes for treatment of mental disorders” (Otsuka Pharmaceutical Co., Ltd., priority 2005, dated 2015).
